Data: patent publication US8969565B2, “Imidazo[1,2-b]pyridazine-based compounds, compositions comprising them, and methods of their use” (Lexicon Pharmaceuticals, Inc., priority 2012, dated 2015)
pIC50: −log10 of the molar value.

Target: T1, AAK1 (Homo sapiens, UniProt Q2M2I8)
T1 construct: HA; expressed in transfected cells; host or cells: HEK293F
Assay: HEK281 cell-based assay (phospho-mu2 Western blot in transfected HEK293F cells)
Conditions: 3 hours incubation, read-out: CBA IC50
Description: HEK293F cells were cultured in media containing DMEM (Gibco, cat. #11965), 10% FBS (SAFC Biosciences, cat. #12103C), 1×GPS (glutamine, penicillin and streptomycin). On day one, cells were plated on a 10 cm dish so that they are ˜80% confluent at time of transfection. Roughly 12 million cells were in a 10 cm dish at time of transfection. On day two, each dish was transfected with 48 ug DNA and 144 ul Lipofectamine 2000 (Invitrogen, cat.#11668-019). The DNA was comprised of a mixture (per 10 cm dish) containing 3 ug AAK1/HA/pIRES (full length human, NCBI accession no. NP_055726.2), 45 μg Flag/AP2MI/pcDNA (full length human), and 1.5 ml OPTI-MEM. The Lipofectamine 2000 is made up of a mixture (per 10 cm dish) containing 144 μl Lipofectamine 2000 and 1.5 ml OPTI-MEM. Each mixture was transferred to individual 15 ml tubes and incubated at RT for 5 minutes, and then the two mixes were combined and incubated at RT for 20 minutes. Growth media was then aspirated from each 10 cm plate and replaced with 10 ml of DMEM+10% FBS (no GPS). Finally, 3 ml DNA/Lipofectamine mix was added to each 10 cm dish and mix gently followed by incubate of plate overnight at 37° C. and 5% CO2.
On day three, compounds were diluted in 100% DMSO at 1000× final concentration, followed by 3-fold serial dilutions for a total of 5 concentrations tested. Four compounds were tested per 10 cm dish. One ul of each compound dilution was then pipetted into a deep-well, 96-well plate, followed by addition of 500 μl DMEM+0.5% FBS into each well for a 2× final concentration of each compound. Cells were resuspended in a 10 cm dish by simple pipetting (HEK293 cells come off the plate that easy at this point) and then transferred to a 50 ml conical tube and pelleted by centrifugation at 1000 rpm for 5 min. Cell pellets were then resuspended in 2.75 ml DMEM+0.5% FBS per 10 cm dish and 100 μl of cell suspension transferred into each well of 96-well TC plate. Finally, 100 μl of 2× compound diluted in DMEM+0.5% FBS was then added into wells containing cell suspension for a 1× final concentration. Plates were then incubated at 37° C. and 5% CO2 for 3 hours followed by transferring of cell suspensions from each well into 12-tube PCR strips. The PCR strips were spun in a tip rack at 1000 rpm for 5 minutes to pellet cells and media was then removed by pipetting without disturbing the cell pellet.
To prepare for Western Blot analysis, cell pellets were resuspend in 40 ul 1×LDS-PAGE sample buffer (Invitrogen, cat.#NP0008)+2× Halt phophatase and protease inhibitor cocktail (Thermo Scientific, cat.#1861284), followed by sonicating each with microtip sonicator set at 5 for 8-10 seconds. Five ul of 10× NuPage Sample Reducing Agent (with 50 mM DTT) was to each sample followed by heat denaturing at 70 C for 10 min on PCR machine. A total of 10 μl per sample was loaded into each lane of a 4-20% Tris-Glycine Criterion 26-well gel (Biorad, cat.#345-0034) for the phospho-mu2 blot and 10 μl per lane in a 4-12% Bis-Tris (+MES buffer) NuPAGE 26-well gel (Invitrogen, cat.#WG1403BX10) for the mu2 blot. For controls, 2 ng of phospho-mu2 or 20 ng mu2/Flag proteins were loaded in the last well of each gel. After SDS-PAGE, samples on each gel were transferred to PVDF membrane using an iBlot and membranes were blocked for one hour in TBST+5% milk, followed by wash 3× for 5-10 min with TBST. Criterion gels were probed with rabbit anti-phospho-mu2 (1:5000; a rabbit polyclonal antibody produced by New England Peptide and affinity purified at Lexicon) in TBST+5% BSA, whereas, NuPAGE gels were probed with mouse anti-Flag (1:500; Sigma, cat.#F1804) in TBST+5% milk, and these primary antibodies were incubated overnight at 4° C. on a rocker.

T1 sequence (Q2M2I8 1-863 isoform Q2M2I8-2): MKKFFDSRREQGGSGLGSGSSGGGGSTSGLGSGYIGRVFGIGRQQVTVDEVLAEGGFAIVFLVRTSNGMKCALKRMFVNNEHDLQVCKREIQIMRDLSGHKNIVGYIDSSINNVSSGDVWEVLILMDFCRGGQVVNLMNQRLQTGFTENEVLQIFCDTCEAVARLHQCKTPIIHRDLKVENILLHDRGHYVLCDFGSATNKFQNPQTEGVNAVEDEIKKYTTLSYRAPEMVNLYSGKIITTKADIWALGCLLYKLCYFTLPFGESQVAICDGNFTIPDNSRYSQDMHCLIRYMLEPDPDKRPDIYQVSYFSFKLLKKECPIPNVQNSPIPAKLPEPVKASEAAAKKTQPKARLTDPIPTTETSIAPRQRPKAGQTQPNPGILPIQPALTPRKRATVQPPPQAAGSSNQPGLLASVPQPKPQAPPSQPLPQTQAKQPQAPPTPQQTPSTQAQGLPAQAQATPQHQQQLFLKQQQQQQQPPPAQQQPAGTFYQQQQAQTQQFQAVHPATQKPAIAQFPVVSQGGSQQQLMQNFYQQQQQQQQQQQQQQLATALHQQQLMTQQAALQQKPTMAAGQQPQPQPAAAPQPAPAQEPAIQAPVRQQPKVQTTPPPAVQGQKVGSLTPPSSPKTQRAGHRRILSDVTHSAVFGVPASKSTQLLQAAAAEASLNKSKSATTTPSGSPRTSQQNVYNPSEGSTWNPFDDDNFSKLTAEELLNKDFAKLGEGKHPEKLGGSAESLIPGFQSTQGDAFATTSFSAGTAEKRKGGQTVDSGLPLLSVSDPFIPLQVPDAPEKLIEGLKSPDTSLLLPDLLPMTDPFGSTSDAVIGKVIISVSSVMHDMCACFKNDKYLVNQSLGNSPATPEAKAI

Row | pIC50 | Compound
1 | ≥ 6.00 | CCCCNc1ccc2ncc(-c3ccc(C(=O)N4CCC(N)CC4)cc3)n2n1 [(4-aminopiperidin-1-yl)(4-(6-(butylamino)imidazo[1,2-b]pyridazin-3-yl)phenyl)methanone]
2 | ≥ 7.00 | CC(C)OC(=O)N(C)CCNc1ccc2ncc(-c3ccc([C@H]4CCCN4)cc3)n2n1 [(R)-isopropyl methyl(2-((3-(4-(pyrrolidin-2-yl)phenyl)imidazo[1,2-b]pyridazin-6-yl)amino)ethyl)carbamate]
3 | ≥ 6.00 | CCCCNc1ccc2ncc(-c3ccc([C@H]4CCCN4)cc3)n2n1 [(R)—N-butyl-3-(4-(pyrrolidin-2-yl)phenyl)imidazo[1,2-b]pyridazin-6-amine]
4 | ≥ 8.00 | COc1ccccc1-c1cnc2ccc(NC[C@@H]3CCCN3C(=O)CC(C)C)nn12 [(S)-1-(2-(((3-(2-methoxyphenyl)imidazo[1,2-b]pyridazin-6-yl)amino)methyl)pyrrolidin-1-yl)-3-methylbutan-1-one]
5 | ≥ 7.00 | COc1ccccc1-c1cnc2ccc(NC[C@@H]3CCCN3C(C)=O)nn12 [(S)-1-(2-(((3-(2-methoxyphenyl)imidazo[1,2-b]pyridazin-6-yl)amino)methyl)pyrrolidin-1-yl)ethanone]
6 | ≥ 8.00 | COc1cnccc1-c1cnc2ccc(NC[C@@H]3CCCN3C(=O)CC(C)C)nn12 [(S)-1-(2-(((3-(3-methoxypyridin-4-yl)imidazo[1,2-b]pyridazin-6-yl)amino)methyl)pyrrolidin-1-yl)-3-methylbutan-1-one]
7 | ≥ 7.00 | COc1cnccc1-c1cnc2ccc(NC[C@@H]3CCCN3C(C)=O)nn12 [(S)-1-(2-(((3-(3-methoxypyridin-4-yl)imidazo[1,2-b]pyridazin-6-yl)amino)methyl)pyrrolidin-1-yl)ethanone]
8 | ≥ 8.00 | CC(C)CC(=O)N1CCC[C@H]1CNc1ccc2ncc(-c3ccc(CN)cc3)n2n1 [(S)-1-(2-(((3-(4-(aminomethyl)phenyl)imidazo[1,2-b]pyridazin-6-yl)amino)methyl)pyrrolidin-1-yl)-3-methylbutan-1-one]
9 | ≥ 7.00 | CC(C)CC(=O)N1CCC[C@H]1CNc1ccc2ncc(Br)n2n1 [(S)-1-(2-(((3-bromoimidazo[1,2-b]pyridazin-6-yl)amino)methyl)pyrrolidin-1-yl)-3-methylbutan-1-one]
10 | ≥ 7.00 | CCCCNc1ccc2ncc(-c3ccc(CNC(=O)[C@@H](N)CC(C)C)cc3)n2n1 [(S)-2-amino-N-(4-(6-(butylamino)imidazo[1,2-b]pyridazin-3-yl)benzyl)-4-methylpentanamide]
11 | ≥ 7.00 | NCc1ccc(-c2cnc3ccc(NC[C@@H]4CCCO4)nn23)cc1 [(S)-3-(4-(aminomethyl)phenyl)-N-((tetrahydrofuran-2-yl)methyl)imidazo[1,2-b]pyridazin-6-amine]
12 | ≥ 7.00 | CC(C)CC(=O)N1CCC[C@H]1CNc1ccc2ncc(-c3ccncc3)n2n1 [(S)-3-methyl-1-(2-(((3-(pyridin-4-yl)imidazo[1,2-b]pyridazin-6-yl)amino)methyl)pyrrolidin-1-yl)butan-1-one]
13 | ≥ 7.00 | CCCCNc1ccc2ncc(-c3ccc([C@@H]4CCCN4)cc3)n2n1 [(S)-N-butyl-3-(4-(pyrrolidin-2-yl)phenyl)imidazo[1,2-b]pyridazin-6-amine]
14 | ≥ 7.00 | CCOC(=O)N1CCC[C@H]1CNc1ccc2ncc(-c3ccccc3OC)n2n1 [(S)-ethyl 2-(((3-(2-methoxyphenyl)imidazo[1,2-b]pyridazin-6-yl)amino)methyl)pyrrolidine-1-carboxylate]
15 | ≥ 7.00 | CCOC(=O)N1CCC[C@H]1CNc1ccc2ncc(-c3ccncc3OC)n2n1 [(S)-ethyl 2-(((3-(3-methoxypyridin-4-yl)imidazo[1,2-b]pyridazin-6-yl)amino)methyl)pyrrolidine-1-carboxylate]
16 | ≥ 8.00 | CCOC(=O)N1CCC[C@H]1CNc1ccc2ncc(-c3ccc(CN)cc3)n2n1 [(S)-ethyl 2-(((3-(4-(aminomethyl)phenyl)imidazo[1,2-b]pyridazin-6-yl)amino)methyl)pyrrolidine-1-carboxylate]
17 | ≥ 7.00 | CCOC(=O)N1CCC[C@H]1CNc1ccc2ncc(-c3ccncc3)n2n1 [(S)-ethyl 2-(((3-(pyridin-4-yl)imidazo[1,2-b]pyridazin-6-yl)amino)methyl)pyrrolidine-1-carboxylate]
18 | ≥ 7.00 | CCOC(=O)N1CCC[C@H]1CNc1ccc2ncc(Br)n2n1 [(S)-ethyl 2-(((3-bromoimidazo[1,2-b]pyridazin-6-yl)amino)methyl)pyrrolidine-1-carboxylate]

Continued, molecule first:

Row | Compound | pIC50
19 | NC(=O)c1ccc(-c2cnc3ccc(NCCc4cccc(C(F)(F)F)c4)nn23)cc1 [4-(6-((3-(trifluoromethyl)phenethyl)amino)imidazo[1,2-b]pyridazin-3-yl)benzamide] | ≥ 7.00
20 | CCCCNc1ccc2ncc(-c3ccc(C(=O)NCCNC)c(F)c3)n2n1 [4-(6-(butylamino)imidazo[1,2-b]pyridazin-3-yl)-2-fluoro-N-(2-(methylamino)ethyl)benzamide] | ≥ 7.00
21 | CCCCNc1ccc2ncc(-c3ccc(C(=O)NCCN(CC)CC)cc3)n2n1 [4-(6-(butylamino)imidazo[1,2-b]pyridazin-3-yl)-N-(2-(diethylamino)ethyl)benzamide] | ≥ 8.00
22 | CCCCNc1ccc2ncc(-c3ccc(C(=O)NCCN(C)C)cc3)n2n1 [4-(6-(butylamino)imidazo[1,2-b]pyridazin-3-yl)-N-(2-(dimethylamino)ethyl)benzamide] | ≥ 7.00
23 | CCCCNc1ccc2ncc(-c3ccc(C(=O)NCCNC)cc3)n2n1 [4-(6-(butylamino)imidazo[1,2-b]pyridazin-3-yl)-N-(2-(methylamino)ethyl)benzamide] | ≥ 7.00
24 | CCCCNc1ccc2ncc(-c3ccc(C(=O)NCCN4CCCC4)cc3)n2n1 [4-(6-(butylamino)imidazo[1,2-b]pyridazin-3-yl)-N-(2-(pyrrolidin-1-yl)ethyl)benzamide] | ≥ 7.00
25 | CCCCNc1ccc2ncc(-c3ccc(C(N)=O)cc3)n2n1 [4-(6-(butylamino)imidazo[1,2-b]pyridazin-3-yl)benzamide] | ≥ 7.00
26 | CC(C)(O)CCNc1ccc2ncc(-c3ccc(CN)cc3)n2n1 [4-((3-(4-(aminomethyl)phenyl)imidazo[1,2-b]pyridazin-6-yl)amino)-2-methylbutan-2-ol] | ≥ 7.00
27 | CCCCNc1ccc2ncc(-c3ccc(C(N)=O)s3)n2n1 [5-(6-(butylamino)imidazo[1,2-b]pyridazin-3-yl)thiophene-2-carboxamide] | ≥ 6.00
28 | CCCNc1ccc2ncc(-c3ccc(C=O)s3)n2n1 [5-(6-(propylamino)imidazo[1,2-b]pyridazin-3-yl)thiophene-2-carbaldehyde] | ≥ 6.00
29 | CCCCNc1ccc2ncc(C(=O)Nc3cn[nH]c3)n2n1 [6-(butylamino)-N-(1H-pyrazol-4-yl)imidazo[1,2-b]pyridazine-3-carboxamide] | ≥ 6.00
30 | CCOC(=O)N1CCC[C@H]1CNc1ccc2ncc(-c3ccc(C4CCCN4)cc3)n2n1 (stereo partly drawn) [(2S)-ethyl 2-(((3-(4-(pyrrolidin-2-yl)phenyl)imidazo[1,2-b]pyridazin-6-yl)amino)methyl)pyrrolidine-1-carboxylate] | ≥ 7.00
31 | COC(=O)N1CCC[C@H]1CNc1ccc2ncc(-c3ccc(C4CCCN4)cc3)n2n1 (stereo partly drawn) [(2S)-methyl 2-(((3-(4-(pyrrolidin-2-yl)phenyl)imidazo[1,2-b]pyridazin-6-yl)amino)methyl)pyrrolidine-1-carboxylate] | ≥ 7.00
